Key:
[1] = biological target: T1, human mAChR M1 (Homo sapiens, UniProt P11229); test: mAChR M1 cell-based functional assay (calcium mobilization), PAM mode: increase in the EC20 acetylcholine response
T1 sequence (P11229 1-460): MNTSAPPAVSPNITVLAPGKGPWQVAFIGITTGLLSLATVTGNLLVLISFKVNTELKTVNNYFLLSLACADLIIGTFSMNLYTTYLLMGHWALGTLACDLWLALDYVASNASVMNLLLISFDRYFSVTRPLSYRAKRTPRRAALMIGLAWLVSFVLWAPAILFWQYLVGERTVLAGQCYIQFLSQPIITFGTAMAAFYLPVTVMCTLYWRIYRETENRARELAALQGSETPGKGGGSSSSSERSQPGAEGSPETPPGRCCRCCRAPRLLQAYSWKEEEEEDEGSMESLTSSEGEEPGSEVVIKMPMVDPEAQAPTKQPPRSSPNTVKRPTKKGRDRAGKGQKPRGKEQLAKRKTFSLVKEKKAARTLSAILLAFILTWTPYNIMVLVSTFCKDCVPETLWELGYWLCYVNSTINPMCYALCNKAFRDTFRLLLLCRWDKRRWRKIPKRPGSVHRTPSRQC
In short: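 PAM readout is the concentration-dependent rise in the EC20 acetylcholine calcium signal, fitted to a four-parameter logistic (EC50, Emax). Compounds were preincubated from 4 s before ACh at 144 s (EC20) and 230 s (EC80). hM1-expressing CHO-K1 cells loaded with Fluo-4, FDSS ratio read.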

[2] = biological target: T1, human mAChR M1; test: mAChR M1 cell-based functional assay (calcium mobilization), agonist mode: compound alone, Emax relative to acetylcholine maximum; settings: for EC50 / Agonist Activity Human M1 EC50: human mAChR M1; for Emax: relative to the maximum for acetylcholine
In short: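 Agonist activity is the concentration-dependent rise in intracellular calcium (Fluo-4, 1 Hz read) after compound addition, measured before any acetylcholine was added, in stable hM1 CHO-K1 cells. Curves were 11-point, 1:3 dilutions fitted by four-parameter logistic. Emax is given as a fraction of maximal acetylcholine response.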

Compound	EC50 [1] [nM]	Emax [1] [%]	EC50 [2] [nM]	Emax [2] [%]	Agonist Activity Human M1 EC50 [2]
[2H]C1([2H])c2ncccc2C(=O)N1Cc1ccc(-c2ccc(OCC3CCCO3)c3nn(C)cc23)cc1F (stereo not drawn) [Compound 147, 6-(2-fluoro-4-(2-methyl-7-((tetrahydrofuran-2-yl)methoxy)-2H-indazol-4-yl)benzyl)-6,7-dihydro-5H-pyrrolo[3,4-b]pyridin-5-one-7,7-d2]	1100	79	≥ 10000	12	–
[2H]C1([2H])c2ncccc2C(=O)N1Cc1c(F)cc(-c2ccc(O[C@H](C)COC)c3nn(C)cc23)cc1F [Compound 148, (R)-6-(2,6-difluoro-4-(7-((1-methoxypropan-2-yl)oxy)-2-methyl-2H-indazol-4-yl)benzyl)-6,7-dihydro-5H-pyrrolo[3,4-b]pyridin-5-one-7,7-d2]	540	81	≥ 10000	31	–
[2H]C1([2H])c2ncccc2C(=O)N1Cc1c(F)cc(-c2ccc(OCCOC(C)C)c3nn(C)cc23)cc1F [Compound 149, 6-(2,6-difluoro-4-(7-(2-isopropoxyethoxy)-2-methyl-2H-indazol-4-yl)benzyl)-6,7-dihydro-5H-pyrrolo[3,4-b]pyridin-5-one-7,7-d2]	717	77	≥ 10000	26	–
[2H]C1([2H])c2ncccc2C(=O)N1Cc1c(F)cc(-c2ccc(OCCOC3CC3)c3nn(C)cc23)cc1F [Compound 150, 6-(4-(7-(2-cyclopropoxyethoxy)-2-methyl-2H-indazol-4-yl)-2,6-difluorobenzyl)-6,7-dihydro-5H-pyrrolo[3,4-b]pyridin-5-one-7,7-d2]	777	80	≥ 10000	22	–
[2H]C1([2H])c2ncccc2C(=O)N1Cc1ccc(-c2ccc(O[C@@H]3CCOC3)c3nn(C)cc23)cc1F [Compound 151, (R)-6-(2-fluoro-4-(2-methyl-7-((tetrahydrofuran-3-yl)oxy)-2H-indazol-4-yl)benzyl)-6,7-dihydro-5H-pyrrolo[3,4-b]pyridin-5-one-7,7-d2]	694	76	≥ 10000	22	–
[2H]C1([2H])c2ncccc2C(=O)N1Cc1ccc(-c2ccc(O[C@@H](C)COC)c3nn(C)cc23)cc1F [Compound 152, (S)-6-(2-fluoro-4-(7-((1-methoxypropan-2-yl)oxy)-2-methyl-2H-indazol-4-yl)benzyl)-6,7-dihydro-5H-pyrrolo[3,4-b]pyridin-5-one-7,7-d2]	643	80	≥ 10000	27	–
[2H]C1([2H])c2ncccc2C(=O)N1Cc1ccc(-c2ccc(OCCOC(C)C)c3nn(C)cc23)cc1F [Compound 153, 6-(2-fluoro-4-(7-(2-isopropoxyethoxy)-2-methyl-2H-indazol-4-yl)benzyl)-6,7-dihydro-5H-pyrrolo[3,4-b]pyridin-5-one-7,7-d2]	1340	79	≥ 10000	15	–
[2H]C1([2H])c2ncccc2C(=O)N1Cc1ccc(-c2ccc(OCCOC3CC3)c3nn(C)cc23)cc1F [Compound 154, 6-(4-(7-(2-cyclopropoxyethoxy)-2-methyl-2H-indazol-4-yl)-2-fluorobenzyl)-6,7-dihydro-5H-pyrrolo[3,4-b]pyridin-5-one-7,7-d2]	1090	77	≥ 10000	17	–
[2H]C1([2H])c2ncccc2C(=O)N1Cc1c(F)cc(-c2cnc3nn(C)cc3c2)cc1Cl [Compound 168, 6-(2-chloro-6-fluoro-4-(2-methyl-2H-pyrazolo[3,4-b]pyridin-5-yl)benzyl)-6,7-dihydro-5H-pyrrolo[3,4-b]pyridin-5-one-7,7-d2]	1480	86	–	6	Inactive
[2H]C1([2H])c2ncccc2C(=O)N1Cc1c(F)cc(-c2ccc(OC3CC3)c3nn(C)cc23)cc1Cl [Compound 169, 6-(2-chloro-4-(7-cyclopropoxy-2-methyl-2H-indazol-4-yl)-6-fluorobenzyl)-6,7-dihydro-5H-pyrrolo[3,4-b]pyridin-5-one-7,7-d2]	630	81	–	7	Inactive

Second part, the compound after the results:

EC50 [1] [nM]	Emax [1] [%]	EC50 [2] [nM]	Emax [2] [%]	Agonist Activity Human M1 EC50 [2]	Compound
456	81	≥ 10000	16	–	[2H]C1([2H])c2ncccc2C(=O)N1Cc1c(C)cc(-c2ccc(C)c3nn(C([2H])([2H])[2H])cc23)cc1F [Compound 157, 6-(2-fluoro-6-methyl-4-(7-methyl-2-(methyl-d3)-2H-indazol-4-yl)benzyl)-6,7-dihydro-5H-pyrrolo[3,4-b]pyridin-5-one-7,7-d2]
382	80	–	6	Inactive	[2H]C1([2H])c2ncccc2C(=O)N1Cc1c(C)cc(-c2ccc(F)c3nn(C([2H])([2H])[2H])cc23)cc1F [Compound 158, 6-(2-fluoro-4-(7-fluoro-2-(methyl-d3)-2H-indazol-4-yl)-6-methylbenzyl)-6,7-dihydro-5H-pyrrolo[3,4-b]pyridin-5-one-7,7-d2]
164	83	6240	31	–	[2H]C1([2H])c2ncccc2C(=O)N1Cc1c(C)cc(-c2ccc(OC)c3nn(C([2H])([2H])[2H])cc23)cc1F [Compound 159, 6-(2-fluoro-4-(7-methoxy-2-(methyl-d3)-2H-indazol-4-yl)-6-methylbenzyl)-6,7-dihydro-5H-pyrrolo[3,4-b]pyridin-5-one-7,7-d2]
396	83	≥ 10000	13	–	[2H]C1([2H])c2ncccc2C(=O)N1Cc1c(C)cc(-c2ccc3nn(C([2H])([2H])[2H])cc3c2)cc1F [Compound 160, 6-(2-fluoro-6-methyl-4-(2-(methyl-d3)-2H-indazol-5-yl)benzyl)-6,7-dihydro-5H-pyrrolo[3,4-b]pyridin-5-one-7,7-d2]
353	81	–	6	Inactive	[2H]C1([2H])c2ncccc2C(=O)N1Cc1c(F)cc(-c2cccc3nn(C([2H])([2H])[2H])cc23)cc1Cl [Compound 161, 6-(2-chloro-6-fluoro-4-(2-(methyl-d3)-2H-indazol-4-yl)benzyl)-6,7-dihydro-5H-pyrrolo[3,4-b]pyridin-5-one-7,7-d2]
435	81	–	2	Inactive	[2H]C1([2H])c2ncccc2C(=O)N1Cc1c(F)cc(-c2ccc(C)c3nn(C)cc23)cc1Cl [Compound 162, 6-(2-chloro-4-(2,7-dimethyl-2H-indazol-4-yl)-6-fluorobenzyl)-6,7-dihydro-5H-pyrrolo[3,4-b]pyridin-5-one-7,7-d2]
239	81	–	3	Inactive	[2H]C1([2H])c2ncccc2C(=O)N1Cc1c(F)cc(-c2ccc(OC)c3nn(C)cc23)cc1Cl [Compound 163, 6-(2-chloro-6-fluoro-4-(7-methoxy-2-methyl-2H-indazol-4-yl)benzyl)-6,7-dihydro-5H-pyrrolo[3,4-b]pyridin-5-one-7,7-d2]
476	82	–	3	Inactive	[2H]C1([2H])c2ncccc2C(=O)N1Cc1c(F)cc(-c2ccc(F)c3nn(C)cc23)cc1Cl [Compound 164, 6-(2-chloro-6-fluoro-4-(7-fluoro-2-methyl-2H-indazol-4-yl)benzyl)-6,7-dihydro-5H-pyrrolo[3,4-b]pyridin-5-one-7,7-d2]
643	93	≥ 10000	16	–	[2H]C1([2H])c2ncccc2C(=O)N1Cc1c(F)cc(-c2ccnc3nn(C)cc23)cc1Cl [Compound 165, 6-(2-chloro-6-fluoro-4-(2-methyl-2H-pyrazolo[3,4-b]pyridin-4-yl)benzyl)-6,7-dihydro-5H-pyrrolo[3,4-b]pyridin-5-one-7,7-d2]
318	82	–	5	Inactive	[2H]C1([2H])c2ncccc2C(=O)N1Cc1c(F)cc(-c2cccc3nn(C)cc23)cc1Cl [Compound 166, 6-(2-chloro-6-fluoro-4-(2-methyl-2H-indazol-4-yl)benzyl)-6,7-dihydro-5H-pyrrolo[3,4-b]pyridin-5-one-7,7-d2]
256	85	–	2	Inactive	[2H]C1([2H])c2ncccc2C(=O)N1Cc1c(F)cc(-c2ccc3nn(C)cc3c2)cc1Cl [Compound 167, 6-(2-chloro-6-fluoro-4-(2-methyl-2H-indazol-5-yl)benzyl)-6,7-dihydro-5H-pyrrolo[3,4-b]pyridin-5-one-7,7-d2]
